# “And” between values parts separate entries of the source, which are not always exact repeats. Identical values can stand only once.
# Tests used:
# [1] = test system: E. coli T7 S30 transcription/translation extract; assay type: biochemical
# [2] = test system: E. coli S30 translation mixtures; assay type: biochemical
# [3] = test system: rabbit red blood cells (rRBCs); assay type: cell-based
# [4] = test system: E. coli T7 S30 transcription/translation extract; assay type: biochemical; remark: listed apart in the source
# α-hemolysin = α-hemolysin (Staphylococcus aureus, UniProt P09616)
# α-HL = α-HL (Staphylococcus aureus, UniProt P09616)
# Chain of α-HL (P09616 26-319, looked up, natural form): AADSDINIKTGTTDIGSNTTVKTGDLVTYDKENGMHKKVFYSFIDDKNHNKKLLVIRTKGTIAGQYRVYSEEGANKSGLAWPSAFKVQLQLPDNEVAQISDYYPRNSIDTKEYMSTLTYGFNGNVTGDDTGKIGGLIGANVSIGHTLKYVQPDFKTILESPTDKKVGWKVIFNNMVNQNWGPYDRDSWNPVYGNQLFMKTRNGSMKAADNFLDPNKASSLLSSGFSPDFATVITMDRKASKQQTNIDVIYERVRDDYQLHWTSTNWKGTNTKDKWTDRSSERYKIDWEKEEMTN
# Chain of α-hemolysin (P09616 26-319, looked up, natural form): as above
compound,measurement,setting,value
"6-(fluorescein-5-(and-6) carboxamido)hexanoic acid, succinimidyl ester [Fluorescein (SFX)]",fluorescence of α-HL band relative to BODIPY-FL-SSE,[1],4.6%
"5-(and-6)-carboxyfluorescein, succinimidyl-ester [Fluorescein (FAM)]",fluorescence of α-HL band relative to BODIPY-FL-SSE,[1],8.4%
"COc1ccc(-c2cnc(-c3cc[n+](Cc4cccc(C(=O)ON5C(=O)CCC5=O)c4)cc3)o2)cc1 [PyMPO, 1-(3-(succinimidyloxycarbonyl)benzyl)-4-(5-(4-methoxyphenyl)oxazol-2-yl) pyridininium bromide]",reduction in fluorescence compared with BODIPY-FL,[1],approximately an order of magnitude reduction in fluorescence
succinimidyl 7-amino-methyl-amino-coumarin acetate [AMCA-NHS],detectability / incorporation of fluorescent α-HL bands,[2],very low levels of detectable fluorescent bands
"4,4-difluoro-5,7-dimethyl-4-bora-3a, 4a-diaza-s-indacene propionic acid, sulfosuccinimidyl ester [BODIPY-FL, SSE]",level of fluorescence of HL band compared to non-sulfonated form,[1],approximately 2 times
"Cc1c(CC(=O)ON2C(=O)CC(S(=O)(=O)O)C2=O)c(=O)oc2cc(N)ccc12 (stereo not drawn) [AMCA-sulfo-NHS, sulfosuccinimidyl 7-amino-4-methylcoumarin-3-acetate]",detectability / incorporation of fluorescent α-HL bands,[2],easily detectable bands
"6-(tetramethylrhodamine-5-(and-6)-carboxamido)hexanoic acid, succinimidyl ester [5/6-TAMRA]",fluorescence of α-HL band relative to BODIPY-FL-SSE,[1],35%
α-Hemolysin,α-Hemolysin activity,[3],0.085 OD415 nm/μl and 0.083 OD415 nm/μl
same,earliest time of band detection after initiation of incubation,[4],5 min
Alexa 350-N-hydroxy-succinimide ester,detectability / incorporation of fluorescent α-HL bands,[2],seems to not incorporate as well as its neutral counterpart
"4,4-difluoro-5,7-dimethyl-4-bora-3a,4a-diaza-s-indacene [BODIPY-FL]",amount of alpha-hemolysin detectable,α-hemolysin,Approximately 10 ng
same,amount of protein detectable,α-hemolysin,0.3 ng
same,amount of α-hemolysin detectable,α-hemolysin,0.35-0.5 nanograms
same,smallest volume of original reaction mixture giving detectable α-HL band,α-hemolysin,0.007 µL
same,molar ratio of incorporated BODIPY-FL to protein,α-HL,0.29+/−0.03%
